compound: CC(C)N(CCCNC(=O)Nc1ccc(C(C)(C)C)cc1)C[C@H]1O[C@@H](n2ccc3c(N)ncnc32)[C@H](O)[C@@H]1O + COc1cc2c(Oc3ccc(NC(=O)C4(C(=O)Nc5ccc(F)cc5)CC4)cc3F)ccnc2cc1OCCCN1CCOCC1 [Foretinib] (partner 0.25 µM); experiment: relative viability (nuclei count vs DMSO), 5 days (fraction); higher = more cells survive; settings: first compound 8 µM
Method in brief: (§1)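 One day after seeding in 1536-well plates, lung cancer cell lines were dosed by pin tool. Dosing was either single-drug or a fixed anchor-drug dose plus five library-drug doses (not always all listed) in √10 steps. After 5 days, nuclei were stained in one fix-and-stain step and counted on 4× images, and relative viability is the nuclei count of treated wells over that of vehicle wells, given as the median of duplicate plates.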

In order of rising relative viability:
1. EPLC-272H  0.669
2. NCI-H1734  0.804
3. NCI-H1651  0.808
4. NCI-H1395  0.853
5. NCI-H1755  0.868
6. NCI-H596  0.872
7. HCC-827  0.91
8. LXF-289  0.94
9. CAL-12T  0.944
10. NCI-H23  0.945
11. NCI-H1355  0.972
12. NCI-H2347  0.993
13. NCI-H2405  1.03
14. NCI-H1915  1.03
15. NCI-H322M  1.06
16. NCI-H1437  1.11
17. 201T  1.13

compound: CC(C)N(CCCNC(=O)Nc1ccc(C(C)(C)C)cc1)C[C@H]1O[C@@H](n2ccc3c(N)ncnc32)[C@H](O)[C@@H]1O + CC1(C)CCC(c2ccc(Cl)cc2)=C(CN2CCN(c3ccc(C(=O)NS(=O)(=O)c4ccc(N[C@H](CCN5CCOCC5)CSc5ccccc5)c(S(=O)(=O)C(F)(F)F)c4)cc3)CC2)C1 [Navitoclax] (partner 0.5 µM); experiment: as above; settings: first compound 0.08 µM
Method in brief: as §1

In order of falling relative viability:
1. 201T  1.21
2. NCI-H1395  1.17
3. NCI-H322M  1.16
4. CAL-12T  1.14
5. NCI-H838  1.12
6. HARA  1.08
7. NCI-H3122  1.03
8. EPLC-272H  1.03
9. ChaGo-K-1  1.01
10. NCI-H460  1.01
11. NCI-H1651  1.01
12. LXF-289  1
13. NCI-H1437  1
14. HCC-827  0.992
15. NCI-H2023  0.989
16. NCI-H1755  0.986
17. NCI-H596  0.98
18. NCI-H2405  0.957
19. A-427  0.917
20. HOP-62  0.89
21. NCI-H2347  0.86
22. NCI-H1355  0.854
23. NCI-H1734  0.784
24. NCI-H1915  0.782
25. NCI-H23  0.771
26. COR-L 105  0.745
27. LU99A  0.745
28. HCC-78  0.704
29. LOU-NH91  0.628
30. NCI-H2170  0.605
31. LCLC-97TM1  0.407
32. BEN  0.0864

same assay, conditions: first compound 0.253 µM

In order of rising relative viability:
1. BEN  0.0543
2. LOU-NH91  0.581
3. NCI-H2170  0.637
4. HCC-78  0.646
5. NCI-H441  0.66
6. NCI-H2347  0.684
7. LU99A  0.717
8. COR-L 105  0.776
9. NCI-H1915  0.778
10. NCI-H1734  0.86
11. NCI-H596  0.877
12. NCI-H1355  0.909
13. A-427  0.941
14. HCC-827  0.949
15. LXF-289  0.969
16. EPLC-272H  0.981
17. NCI-H1755  0.99
18. NCI-H3122  0.997
19. ChaGo-K-1  1.02
20. NCI-H1651  1.04
21. NCI-H2023  1.05
22. HOP-62  1.07
23. HARA  1.07
24. NCI-H322M  1.09
25. NCI-H838  1.1
26. NCI-H1395  1.1
27. NCI-H1437  1.11
28. NCI-H460  1.16
29. 201T  1.21
30. CAL-12T  1.27

same assay, conditions: first compound 0.8 µM

In order of rising relative viability:
1. BEN  0.0608
2. LCLC-97TM1  0.296
3. NCI-H2170  0.594
4. HCC-78  0.607
5. NCI-H2347  0.608
6. NCI-H441  0.682
7. NCI-H23  0.698
8. NCI-H1734  0.71
9. LU99A  0.747
10. NCI-H1915  0.781
11. HOP-62  0.846
12. A-427  0.875
13. COR-L 105  0.886
14. NCI-H596  0.909
15. ChaGo-K-1  0.92
16. NCI-H1755  0.923
17. LXF-289  0.957
18. EPLC-272H  0.989
19. NCI-H2405  0.991
20. NCI-H2023  1.01
21. NCI-H3122  1.04
22. NCI-H1437  1.07
23. NCI-H1651  1.09
24. NCI-H460  1.12
25. HARA  1.15
26. CAL-12T  1.19
27. NCI-H322M  1.19
28. NCI-H838  1.2
29. 201T  1.24

same assay, conditions: first compound 2.53 µM

In order of falling relative viability:
1. NCI-H460  1.27
2. NCI-H1395  1.23
3. 201T  1.21
4. NCI-H322M  1.2
5. CAL-12T  1.19
6. NCI-H838  1.15
7. NCI-H1437  1.14
8. HARA  1.13
9. EPLC-272H  1.12
10. NCI-H2023  1.05
11. NCI-H1651  1.05
12. ChaGo-K-1  1.01
13. LU99A  1.01
14. NCI-H596  1.01
15. NCI-H2405  1
16. LXF-289  0.988
17. NCI-H3122  0.985
18. A-427  0.969
19. HCC-827  0.962
20. NCI-H1755  0.958
21. COR-L 105  0.931
22. HOP-62  0.929
23. NCI-H1355  0.911
24. NCI-H1734  0.856
25. NCI-H23  0.822
26. HCC-78  0.784
27. NCI-H2347  0.771
28. NCI-H1915  0.768
29. NCI-H441  0.698
30. LOU-NH91  0.652
31. NCI-H2170  0.567
32. LCLC-97TM1  0.273
33. BEN  0.0499

same assay, conditions: first compound 8 µM

In order of rising relative viability:
1. BEN  0.0778
2. LCLC-97TM1  0.432
3. NCI-H2170  0.544
4. LOU-NH91  0.606
5. NCI-H441  0.63
6. COR-L 105  0.645
7. HCC-78  0.839
8. LU99A  0.881
9. NCI-H3122  0.931
10. HARA  0.941
11. HOP-62  1.03
12. ChaGo-K-1  1.05

— the supplement of paper PMC10307832
